ChEMBL document CHEMBL5614425, “Novel inhibitors of bromodomain and extra-terminal domain trigger cell death in breast cancer cell lines” (2024)

What was measured:
[1] = target: T1, NAD-dependent protein deacetylase sirtuin-2 (Homo sapiens) (UniProt Q8IXJ6); assay: Inhibition of SIRT2 (unknown origin) using IU179 as substrate incubated for 30 mins by Fluor de Lys sirtuin assay relative to control; design: concentration or dose not given beside the values
T1 sequence (whole entry): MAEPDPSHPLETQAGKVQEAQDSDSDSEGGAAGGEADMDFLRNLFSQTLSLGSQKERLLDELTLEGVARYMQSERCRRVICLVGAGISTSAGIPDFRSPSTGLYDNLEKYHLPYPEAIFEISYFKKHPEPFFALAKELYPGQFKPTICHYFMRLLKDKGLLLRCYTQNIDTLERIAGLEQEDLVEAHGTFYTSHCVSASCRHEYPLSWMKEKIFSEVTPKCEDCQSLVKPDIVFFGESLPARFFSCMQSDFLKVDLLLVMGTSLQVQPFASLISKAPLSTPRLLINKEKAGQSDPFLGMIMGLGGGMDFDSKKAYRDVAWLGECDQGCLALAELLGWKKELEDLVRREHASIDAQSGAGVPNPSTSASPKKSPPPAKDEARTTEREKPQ

[2] = system: T47D; assay: Antiproliferative activity against human T47D cells assessed as decrease in cell numbers at 10 to 100 uM incubated for 24 hrs by PI staining based analysis relative to control; assay type: functional; design: scale not given: the % may be the effect or the level left; details: dose 10-100 µM
[3] = system: T47D; assay: Antitumor activity against human T47D cell spheroids assessed as reduction in spheroid growth at 10 to 100 uM measured for >200 hrs by Image J analysis relative to control; assay type: functional; design: scale not given: the % may be the effect or the level left; details: dose 10-100 µM
[4] = system: T47D; assay: Antitumor activity against human T47D cell spheroids assessed as reduction in spheroid growth at 100 uM measured for >200 hrs by Image J analysis relative to control; assay type: functional; design: scale not given: the % may be the effect or the level left

Row | SMILES | inhibition [1] [%] | Activity [2] [%] | Activity [3] [%] | Activity [4] [%]
1 | CCOc1ccc(C(C)NC(=O)COc2ccc3c(c2)CCC(=O)N3)cc1 (centres undefined) | < 50 | – | – | –
2 | NC(=O)C(NC(=O)CCCOc1ccc2c(c1)CCC(=O)N2)C(N)=O | < 50 | – | – | –
3 | CC1CCCCN1S(=O)(=O)c1ccc(C(=O)Nc2ccc(N3CCOCC3)c3ccncc23)cc1 (centres undefined) | 84 | – | – | –
4 | Cc1cnc2c(c1)N(C(=O)COc1ccc(Cl)c(C)c1)CCC2 | < 50 | – | – | –
5 | COc1cc(/C=N/c2ccc(N3N=C(C)CC3=O)cc2)ccc1O | 50 | – | – | –
6 | Cc1ccc(NC(=O)c2ccc(S(=O)(=O)N3CCCCCC3)cc2)c(C)c1 | < 50 | >40 | ~20 | 100
